Where a name gives a salt, the structure may show the parent alone.

For the assay, the target named is T1, human GPR40 (Homo sapiens, UniProt O14842).
T1 construct: expressed in transfected cells
T1 sequence (O14842 whole entry): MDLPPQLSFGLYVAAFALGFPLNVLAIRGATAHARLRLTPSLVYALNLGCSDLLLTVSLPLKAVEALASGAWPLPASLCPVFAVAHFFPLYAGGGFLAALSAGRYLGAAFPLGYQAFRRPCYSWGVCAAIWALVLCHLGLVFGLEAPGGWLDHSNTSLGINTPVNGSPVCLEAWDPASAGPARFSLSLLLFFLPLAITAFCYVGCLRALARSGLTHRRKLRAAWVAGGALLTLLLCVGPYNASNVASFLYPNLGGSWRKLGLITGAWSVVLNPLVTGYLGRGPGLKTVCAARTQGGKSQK
Kind of assay: Ca2+ mobilization (FLIPR) in a stable GPR40-expressing cell; GPR40 agonist activity. The following applies: compound concentration corresponding to 50% PosiC, 100% = intracellular calcium level induced by 80 μM palmitic acid. It is filed as cell-based. The method, then: Evaluation of effect of test compounds on Ca^2+ mobilization by using a stable GPR40-expressing cell A stable human GPR40-expressing HEK293 cell was used. A cell suspension was prepared such that the above-mentioned cells were present at 6×10^5 cells/mL in a cell culture medium (D-MEM (Nikken Bio Medical Laboratory) supplemented with 10% (v/v) fetal bovine serum (Biowest) and 1% (v/v) penicillin-streptomycin solution (Invitrogen)). The cell suspension was plated in a 384-well plate (poly-D-lysine coated plate; Falcon) in a volume of 25 μl/well, and the plate was incubated at 37° C. in an atmosphere of 5% CO2 overnight. Each test compound was added to the cell at each concentration as below, and then the change in intracellular calcium level was measured by FLIPR^TETRA (Molecular Devices). Before the FLIPR assay, the following preparative solutions were prepared. First, an assay buffer was prepared for use in the preparation of a fluorescent dye solution and a diluent buffer solution. The assay buffer was prepared by adding 1M HEPES solution (Invitrogen) to Hanks' Balanced Salt Solution (Invitrogen), followed by adjusting the pH to 7.4 with 1M NaOH (Nacalai Tesque). Next, the fluorescent dye solution and the diluent buffer solution were prepared. The fluorescent dye solution was prepared in accordance with the instruction manual attached to Fluo-4NW calcium assay kit (Invitrogen), followed by addition of bovine serum albumin (Sigma) to a final concentration of 0.1% (w/v). The diluent buffer solution was prepared by adding bovine serum albumin (Sigma) to the assay buffer to give a final concentration of 0.1% (w/v). After removing a medium supernatant from the cell culture plate incubated overnight, the fluorescent dye solution was added to the plate in a volume of 25 μl/well. The plate was incubated at 37° C. in an atmosphere of 5% CO2 for 90 minutes to promote the fluorescent dye uptake in the cell. Meanwhile, the test compounds (i.e., the compounds prepared in Examples) dissolved in dimethyl sulfoxide (DMSO; Nacalai Tesque) were diluted with the diluent buffer solution, to prepare each compound solution at each concentration. In addition, a palmitic acid solution was prepared as a positive control solution (hereinafter abbreviated as PosiC). A 40 μl aliquot of each sample solution prepared as above was added to each well of a 384-well polypropylene plate to prepare a compound plate. Finally, after the sufficient uptake of the fluorescent dye in the cell, the cell plate and the compound plate were set to FLIPR^TETRA. After the above pretreatment, the change in intracellular calcium level was measured by FLIPR^TETRA upon addition of 25 μl of each test compound solution at each concentration. The GPR40 agonist activity of each test compound at each concentration was determined as a relative activity level (% PosiC) with the intracellular calcium level induced by 80 μM palmitic acid (a GPR40 agonist) set to 100%. Next, each compound concentration corresponding to 50% PosiC was calculated based on the % PosiC value, to compare between agonist activities of the test compounds. In the tables, “++++” indicates 0.01 μM or more but less than 0.1 μM, “+++” indicates 0.1 μM or more but less than 1 μM, “++” indicates 1 μM or more but less than 10 μM, and “+” indicates 10 μM or more for 50% posiC value. In the tables, “N.T.” indicates “not tested”.
(In general: Calcium flux is commonly read through the fluorescence of an indicator in the cells.)
Turning to `CC#C[C@@H](CC(=O)O)c1ccc(OCC2=CC3(CCCC3)CC2)cc1` [Example 17, (S)-3-[4-(spiro[4.4]non-1-en-2-ylmethoxy)-phenyl]-hex-4-ynoic acid], the EC50 (usually the concentration giving half of the maximal effect) was 0.1 to 1 µM.
`CC#C[C@@H](CC(=O)O)c1ccc(OCC2CCC3(CCCC3)CC2)cc1` [Example 22, (S)-3-[4-(spiro[4.5]dec-8-ylmethoxy)-phenyl]-hex-4-ynoic acid]: the EC50 lay in the range of 0.1 to 1 µM.
Next, `CC#C[C@@H](CC(=O)O)c1ccc(OCC2CCC3(CCCCC3)CC2)cc1` [Example 24, (S)-3-[4-(spiro[5.5]undec-3-ylmethoxy)-phenyl]-hex-4-ynoic acid]: 0.1 to 1 µM.
Take `CC#C[C@@H](CC(=O)O)c1ccc(OCC2=CCC3(CCCC3)CC2)cc1` [Example 25, (S)-3-[4-(spiro[4.5]dec-7-en-8-ylmethoxy)-phenyl]-hex-4-ynoic acid]: the EC50 fell in the range of 0.1 to 1 µM.
Next, `CC#C[C@@H](CC(=O)O)c1ccc(OCC2CCC3(CCCCC3)C2)cc1` (stereo partly drawn) [Example 27, (3S)-3-[4-(spiro[4.5]dec-2-ylmethoxy)-phenyl]-hex-4-ynoic acid sodium salt]: 0.1 to 1 µM.
Next, `CC#C[C@@H](CC(=O)O)c1ccc(OCC2CCCC3(CCCCC3)C2)cc1` (stereo partly drawn) [Example 29, (3S)-3-[4-(spiro[5.5]undec-2-ylmethoxy)-phenyl]-hex-4-ynoic acid sodium salt]: 0.1 to 1 µM; `O=C(O)CCc1ccc(OCC2CCC3(CCCCC3)CC2)cc1` [Example 57, 3-[4-(spiro[5.5]undec-3-ylmethoxy)-phenyl]-propionic acid]: 1 to 10 µM.
Next, `CC#C[C@@H](CC(=O)O)c1ccc(OC2CCC3(CCCCC3)CC2)cc1` [Example 63, (3S)-3-[4-(spiro[5.5]undec-3-yloxy)-phenyl]-hex-4-ynoic acid]: 0.1 to 1 µM; `CC#C[C@@H](CC(=O)O)c1ccc(OCC2=CCC3(CCCCC3)CC2)cc1` [Example 73, (3S)-3-[4-(spiro[5.5]undec-2-en-3-ylmethoxy)-phenyl]-hex-4-ynoic acid]: 0.1 to 1 µM.
On to `CC#C[C@H](CC(=O)O)c1ccc(OCC2=CC3(CCCC3)CCC2)cc1` [Example 94, (R)-3-[4-(spiro[4.5]dec-6-en-7-ylmethoxy)-phenyl]-hex-4-ynoic acid L-lysine salt], for which the EC50 lay in the range of 1 to 10 µM.
With `CC#C[C@@H](CC(=O)O)c1ccc(OCC2=C[C@@]3(CCC2)CCC(=O)C3)cc1` [Example 97, (3S)-3-[4-((5S)-2-oxo-spiro[4.5]dec-6-en-7-ylmethoxy)-phenyl]-hex-4-ynoic acid sodium salt], the EC50 was 0.1 to 1 µM.
To `CC#C[C@@H](CC(=O)O)c1ccc(OCC2=C[C@@]3(CCC2)CC[C@H](O)C3)cc1` [Example 99, (3S)-3-[4-((2S,5S)-2-hydroxy-spiro[4.5]dec-6-en-7-ylmethoxy)-phenyl]-hex-4-ynoic acid sodium salt] belongs 1 to 10 µM.
Take `CC#C[C@@H](CC(=O)O)c1ccc(OCC2=C[C@@]3(CCC2)CC[C@@H](O)C3)cc1` [Example 101, (3S)-3-[4-((2R,5S)-2-hydroxy-spiro[4.5]dec-6-en-7-ylmethoxy)-phenyl]-hex-4-ynoic acid sodium salt]: the EC50 lay in the range of 0.1 to 1 µM.
Turning to `CC#C[C@@H](CC(=O)O)c1ccc(OCC2=C[C@]3(CCC2)CCC(=O)C3)cc1` [Example 103, (3S)-3-[4-((5R)-2-oxo-spiro[4.5]dec-6-en-7-ylmethoxy)-phenyl]-hex-4-ynoic acid sodium salt], the half-maximal effective concentration (EC50) lay in the range of 0.1 to 1 µM.
Next, `CC#C[C@@H](CC(=O)O)c1ccc(OCC2=C[C@]3(CCC2)CC[C@@H](O)C3)cc1` [Example 105, (3S)-3-[4-((2R,5R)-2-hydroxy-spiro[4.5]dec-6-en-7-ylmethoxy)-phenyl]-hex-4-ynoic acid sodium salt]: 1 to 10 µM.
As to `CC#C[C@@H](CC(=O)O)c1ccc(OCC2=C[C@]3(CCC2)CC[C@H](O)C3)cc1` [Example 107, (3S)-3-[4-((2S,5R)-2-hydroxy-spiro[4.5]dec-6-en-7-ylmethoxy)-phenyl]-hex-4-ynoic acid sodium salt], the half-maximal effective concentration (EC50) lay in the range of 0.1 to 1 µM.
Consider `O=C(O)CCc1ccc(OCC2=CC3(CCCC3)CCC2)cc1Cl` [Example 108, 3-[2-chloro-4-(spiro[4.5]dec-6-en-7-ylmethoxy)-phenyl]-propionic acid], for which the EC50 is 1 to 10 µM.
On to `Cc1cc(OCC2=CC3(CCCC3)CCC2)ccc1CCC(=O)O` [Example 109, 3-[2-methyl-4-(spiro[4.5]dec-6-en-7-ylmethoxy)-phenyl]-propionic acid], for which the EC50 fell in the range of 1 to 10 µM.
`O=C(O)CCc1ccc(OCC2=CC3(CCCC3)CCC2)c(O)c1` [Example 110, 3-[3-hydroxy-4-(spiro[4.5]dec-6-en-7-ylmethoxy)-phenyl]-propionic acid]: the EC50 was in the range of 0.1 to 1 µM.
For `COc1cc(CCC(=O)O)ccc1OCC1=CC2(CCCC2)CCC1` [Example 111, 3-[3-methoxy-4-(spiro[4.5]dec-6-en-7-ylmethoxy)-phenyl]-propionic acid], the EC50 was at least 10 µM.
Next, `O=C(O)CCc1ccc(OCC2=CC3(CCCC3)CCC2)c(F)c1` [Example 112, 3-[3-fluoro-4-(spiro[4.5]dec-6-en-7-ylmethoxy)-phenyl]-propionic acid]: at least 10 µM; `O=C(O)CCc1ccc(OCC2=CC3(CCC3)CC2)cc1` [Example 117, 3-[4-(spiro[3.4]oct-5-en-6-ylmethoxy)-phenyl]-propionic acid]: 1 to 10 µM.
For the compound `CC#C[C@@H](CC(=O)O)c1ccc(OCC2=CCCC3(CCCCC3)C2)cc1` [Example 119, (S)-3-[4-(spiro[5.5]undec-2-en-2-ylmethoxy)-phenyl]-hex-4-ynoic acid L-lysine salt], the EC50 lay within 0.1 to 1 µM.

(Values after patent US8299296B2, “Spiro compounds and pharmaceutical use thereof” (Japan Tobacco Inc., priority 2007, dated 2012).)
